Measured values as given in BindingDB's records for patent US11787810 (Merck Sharp & Dohme, 2023).

Target: T1, Diacylglycerol O-acyltransferase 2 (Homo sapiens, UniProt Q96PD7)
T1 sequence (Q96PD7 whole entry): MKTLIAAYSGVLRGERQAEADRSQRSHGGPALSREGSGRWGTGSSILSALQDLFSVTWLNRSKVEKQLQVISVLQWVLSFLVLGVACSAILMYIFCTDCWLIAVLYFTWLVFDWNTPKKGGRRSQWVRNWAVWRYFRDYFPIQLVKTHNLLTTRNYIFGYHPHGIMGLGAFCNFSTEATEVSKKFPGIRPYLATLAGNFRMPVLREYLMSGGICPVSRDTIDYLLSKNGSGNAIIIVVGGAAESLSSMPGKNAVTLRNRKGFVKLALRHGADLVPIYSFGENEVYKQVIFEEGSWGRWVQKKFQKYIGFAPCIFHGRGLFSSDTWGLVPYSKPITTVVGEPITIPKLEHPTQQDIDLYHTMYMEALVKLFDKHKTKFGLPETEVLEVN
Assay: DGAT2 Enzymatic Activity Assay
Description: DGAT2 activity was determined by measuring the amount of enzymatic product 13C18-triolein (13C-1,2,3-Tri(cis-9-octadecenoyl)glycerol) using the membrane prep mentioned above. The assay was carried out in ABgene 384-well assay plates in a final volume of 25 μL at rt. The assay mixture contained the following: assay buffer (100 mM Tris Cl, pH 7.0, 20 mM MgCl2, 5% ethanol), 25 μM of diolein, 5 μM of 13C oleoyl-CoA and 8 ng/μL of DGAT2 membrane.

CC(C)n1nc(-c2cccc(OCC#N)c2)c2ncc(C(=O)NC3(C)CS(=O)(=O)C3)cc21 [US11787810, Example 103]
IC50: 0.142 µM

CC(C)n1nc(-c2cccc(OC(F)F)c2)c2ncc(C(=O)NC3(C)CCS(=O)(=O)CC3)cc21 [US11787810, Example 32]
IC50: 0.0043 µM

CC(=O)N1CC(n2nc(-c3cccc(OC(F)F)c3)c3ncc(C(=O)NC4(C)CS(=O)(=O)C4)cc32)C1 [US11787810, Example 135]
IC50: 7.94 µM
